Assay results reported in BindingDB's records for patent US11746110 (Shenzhen Targetrx, 2023).

Target: Tyrosine-protein kinase ABL1 (Homo sapiens, UniProt P00519)
Test: Biochemical Kinase Assay
Experimental: Reagents and materials: ABL (ThermoFisher, Cat. No. PV3585), ABL T315I(Thermo Fisher, Cat. No. PR7429B), Ret (Carna, Cat. No. 08-159-10 ug), RETV804M, Active (Signalchem, Cat. No. R02-12GG), ATP (Sigma, Cat. No. A7699-1G), DMSO (Sigma, Cat. No. D2650), 96-well plate (Corning, Cat. No. 3365), 384-well plate (Greiner, Cat. No. 784076), buffer solution (Thermo Fisher, Cat. No. PR4876B). Specific Assay Method: Compound formulation: The test compounds were dissolved in DMSO to prepare a 20 mM stock solution. Before use, the compounds were diluted in DMSO to 0.1 mM, and diluted into 11 concentrations with a 3-fold gradient. When addition, dilutions of 4-fold final concentration were then made with buffer solution. Kinase assay method: After preparing the buffer, the enzyme was mixed with pre-formulated and diluted compounds of different concentrations in duplicate for each concentration, and placed at room temperature for 30 minutes. The corresponding substrate and ATP were added thereto,and reacted at room temperature for 60 minutes (both a negative and a positive control were set). After the reaction, antibody was added for detection, Envision detection was carried out after 60 minutes incubation at room temperature, and data was collected. Data analysis and fitting were made according to XLfit5 software.

Chain of Tyrosine-protein kinase ABL1 (P00519 whole entry): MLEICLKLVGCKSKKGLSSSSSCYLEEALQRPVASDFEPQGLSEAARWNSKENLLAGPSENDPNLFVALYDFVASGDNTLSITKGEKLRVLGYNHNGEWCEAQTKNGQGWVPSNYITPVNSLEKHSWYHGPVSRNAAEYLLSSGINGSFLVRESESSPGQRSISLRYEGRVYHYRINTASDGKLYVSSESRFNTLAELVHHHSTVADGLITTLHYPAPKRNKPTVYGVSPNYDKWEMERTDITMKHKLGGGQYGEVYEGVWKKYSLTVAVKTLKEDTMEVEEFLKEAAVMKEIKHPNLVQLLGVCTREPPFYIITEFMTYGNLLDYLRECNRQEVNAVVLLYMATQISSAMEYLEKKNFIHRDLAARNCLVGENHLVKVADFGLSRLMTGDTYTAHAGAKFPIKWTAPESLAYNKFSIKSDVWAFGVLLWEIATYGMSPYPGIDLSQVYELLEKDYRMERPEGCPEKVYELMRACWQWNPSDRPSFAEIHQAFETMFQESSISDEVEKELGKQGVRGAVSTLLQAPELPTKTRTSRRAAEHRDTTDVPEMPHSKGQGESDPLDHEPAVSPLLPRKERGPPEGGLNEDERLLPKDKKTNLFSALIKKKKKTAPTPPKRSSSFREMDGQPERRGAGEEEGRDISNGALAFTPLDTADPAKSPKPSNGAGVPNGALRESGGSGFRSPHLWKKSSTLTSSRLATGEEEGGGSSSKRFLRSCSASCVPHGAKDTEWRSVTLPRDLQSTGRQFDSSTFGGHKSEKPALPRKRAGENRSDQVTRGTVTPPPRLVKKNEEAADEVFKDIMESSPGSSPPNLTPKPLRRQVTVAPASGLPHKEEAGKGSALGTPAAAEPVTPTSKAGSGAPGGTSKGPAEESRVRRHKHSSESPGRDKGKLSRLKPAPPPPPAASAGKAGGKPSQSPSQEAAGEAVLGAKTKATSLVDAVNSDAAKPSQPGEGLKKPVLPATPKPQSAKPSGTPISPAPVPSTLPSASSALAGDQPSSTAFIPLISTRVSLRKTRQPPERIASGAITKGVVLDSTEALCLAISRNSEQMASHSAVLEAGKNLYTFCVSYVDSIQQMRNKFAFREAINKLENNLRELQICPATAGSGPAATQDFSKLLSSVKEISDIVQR

Cc1ccc(NC(=O)Nc2ccc(Cl)c(C(F)(F)F)c2)cc1C#Cc1cnc2c(Nc3cnn(C)c3)nccn12 [US11746110, Example 7]
IC50: 32.1 nM

Cc1ccc(NC(=O)Nc2ccc(Cl)c(C(F)(F)F)c2)cc1C#Cc1cnc2c(Nc3cnn(C)c3)ccnn12 [US11746110, Example 16]
IC50: 82.9 nM
